Measurements: patent US20090239841A1, “Diaryl Ureas as CB1 Antagonists” (priority 2004, published 2009)

Target: T1, hCB1 (Homo sapiens, UniProt P21554)
T1 construct: made in house; host or cells: Sf9 insect cells (baculovirus), P2 membranes
Experiment: Agonist-induced GTP binding (GTPγ35S) assay at CB1, Example 8
Format: biochemical
Conditions: IC50 at CB1, determined as described in Example 8; read-out: IC50
Method in brief: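 Membranes from Sf9 cells co-expressing hCB1 and heterotrimeric G-protein (10 μg protein) in Tris pH 7.4 buffer with 5 μM GDP. Test compounds (10^−10–10^−5 M) competed against 1 nM CP55,940 with […] GTPγ35S, 60 min at room temperature. Filter-bound radioactivity by scintillation, expressed as percent above basal.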

T1 sequence (P21554 whole entry): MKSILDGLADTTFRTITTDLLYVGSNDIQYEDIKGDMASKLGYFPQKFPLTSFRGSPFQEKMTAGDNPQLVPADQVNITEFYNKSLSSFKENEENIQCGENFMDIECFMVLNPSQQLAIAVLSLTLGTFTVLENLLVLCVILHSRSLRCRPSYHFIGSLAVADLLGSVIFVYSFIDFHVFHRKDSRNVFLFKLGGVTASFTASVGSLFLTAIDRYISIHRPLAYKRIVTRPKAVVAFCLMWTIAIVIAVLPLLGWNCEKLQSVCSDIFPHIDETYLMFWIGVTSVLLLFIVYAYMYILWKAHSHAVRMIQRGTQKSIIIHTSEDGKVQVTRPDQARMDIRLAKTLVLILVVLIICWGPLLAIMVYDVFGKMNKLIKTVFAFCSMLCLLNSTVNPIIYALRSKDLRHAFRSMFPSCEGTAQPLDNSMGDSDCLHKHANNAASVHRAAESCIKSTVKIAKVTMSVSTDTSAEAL

Structure (SMILES) | IC50 [nM]
CCc1ccc(NC(=O)Nc2cc(C)ccn2)cc1 [Compound 640, 1-(4-ethylphenyl)-3-(4-methylpyridin-2-yl)urea] | < 2000
COCc1ccc(NC(=O)Nc2ccc(C(C)=O)cc2)cc1 [Compound 415, 1-(4-acetylphenyl)-3-[4-(methoxymethyl)phenyl]urea] | < 2000
COc1ccc(NC(=O)Nc2cccc(OC(F)F)c2)cc1 [Compound 554, 1-[3-(difluoromethoxy)phenyl]-3-(4-methoxyphenyl)urea] | < 2000
CCOc1ccc(NC(=O)Nc2ccc(F)c(C)c2)cc1 [Compound 617, 1-(4-ethoxyphenyl)-3-(4-fluoro-3-methylphenyl)urea] | < 2000
CCOc1ccc(NC(=O)Nc2ccc([N+](=O)[O-])cc2)cc1 [Compound 560, 1-(4-ethoxyphenyl)-3-(4-nitrophenyl)urea] | < 2000
CCOc1ccc(NC(=O)Nc2cccc([N+](=O)[O-])c2)cc1 [Compound 559, 1-(4-ethoxyphenyl)-3-(3-nitrophenyl)urea] | < 2000
CCOC(=O)c1ccc(NC(=O)Nc2ccc(OC(F)F)cc2)cc1 [Compound 583, ethyl 4-[({[4-(difluoromethoxy)phenyl]amino}carbonyl)amino]benzoate] | < 2000
COC(=O)c1ccc(NC(=O)Nc2ccc(CCO)cc2)cc1 [Compound 752, methyl 4-[({[4-(2-hydroxyethyl)phenyl]amino}carbonyl)amino] benzoate] | < 2000
CCOc1ccc(NC(=O)Nc2cccc(OCC)c2)cc1 [Compound 543, 1-(3-ethoxyphenyl)-3-(4-ethoxyphenyl)urea] | < 2000
COC(=O)c1ccc(NC(=O)Nc2ccc(F)cc2)cc1 [Compound 472, methyl 4-({[(4-fluorophenyl)amino]carbonyl)amino)benzoate] | < 2000
Cc1ccc(NC(=O)Nc2ccc(C(C)C)cc2)cc1 [Compound 300, 1-(4-isopropylphenyl)-3-(4-methylphenyl)urea] | < 2000
Cc1ccc(NC(=O)Nc2ccc(OCC#N)cc2)cc1C [Compound 729, 1-[4-(cyanomethoxy)phenyl]-3-(3,4-dimethylphenyl)urea] | < 2000
O=C(Nc1cccc(OC(F)F)c1)Nc1ccccc1OC(F)F [Compound 539, 1-[2-(difluoromethoxy)phenyl]-3-[3-(difluoromethoxy)phenyl]urea] | < 2000
COC(=O)c1ccc(NC(=O)Nc2ccc(C(=O)OC(C)C)cc2)cc1 [Compound 724, isopropyl methyl 4,4′-(carbonyldiimino)dibenzoate] | < 2000
CCc1ccc(NC(=O)Nc2cccc(Cl)c2)cc1 [Compound 330, 1-(3-chlorophenyl)-3-(4-ethylphenyl)urea] | < 2000
CCOC(=O)c1cccc(NC(=O)Nc2cccc(OC(C)C)c2)c1 [Compound 672, ethyl 3-({[(3-isopropoxyphenyl)amino]carbonyl}amino)benzoate] | < 2000
O=C(Nc1ccc(Cn2cncn2)cc1)Nc1cccc(OC(F)F)c1 [Compound 784, N-[3-(difluoromethoxy)phenyl]-N′-[4-(1H-1,2,4-triazol-1-ylmethyl)phenyl]urea] | < 2000
CCC(=O)c1ccc(NC(=O)Nc2cccc(C)c2)cc1 [Compound 468, 1-(3-methylphenyl)-3-(4-propionylphenyl)urea] | < 2000
Cc1ccc(NC(=O)Nc2cccc(O)c2)cc1F [Compound 759, 1-(3-fluoro-4-methylphenyl)-3-(3-hydroxyphenyl)urea] | < 2000
CCCOc1ccc(NC(=O)Nc2cc(C)cc(C)c2)cc1 [Compound 706, 1-(3,5-dimethylphenyl)-3-(4-propoxyphenyl)urea] | < 2000
O=C(Nc1cccc(F)c1)Nc1cccc(OC(F)F)c1 [Compound 371, 1-[3-(difluoromethoxy)phenyl]-3-(3-fluorophenyl)urea] | < 2000
CC(=O)c1ccc(NC(=O)Nc2cccc(OC(F)F)c2)cc1 [Compound 426, 1-(4-acetylphenyl)-3-[3-(difluoromethoxy)phenyl]urea] | < 2000
CCCc1ccc(NC(=O)Nc2ccc(OCC)cc2)cc1 [Compound 526, 1-(4-ethoxyphenyl)-3-(4-propylphenyl)urea] | < 2000
CCc1ccc(NC(=O)Nc2ccc(C)cc2)cc1 [Compound 290, N-(4-ethylphenyl)-N′-(4-methylphenyl)urea] | < 2000
CCc1ccc(NC(=O)Nc2ccc(OC(F)(F)F)cc2)cc1 [Compound 517, 1-(4-ethylphenyl)-3-[4-(trifluoromethoxy)phenyl]urea] | < 2000

Same assay, conditions: Table I; IC50 at CB1, GTP binding with 1 nM CP55,940; read-out: IC50

Structure (SMILES) | IC50 [nM]
CCCOc1ccc(NC(=O)Nc2ccccc2)cc1 [Compound 44, N-phenyl-N′-(4-propoxyphenyl)urea] | < 2000

Same assay, conditions: Table II; IC50 at CB1, GTP binding with 1 nM CP55,940; read-out: IC50

Structure (SMILES) | IC50 [nM]
Cc1cccc(NC(=O)Nc2cccc(OC(F)F)c2)c1 [Compound 217, N-[3-(difluoromethoxy)phenyl]-N′-(3-methylphenyl)urea] | < 2000
CC(=O)c1ccc(NC(=O)Nc2ccc(C)cc2)cc1 [Compound 187, N-(4-acetylphenyl)-N′-(4-methylphenyl)urea] | < 2000
Cc1noc(C)c1-c1cccc(NC(=O)Nc2cccc(OC(F)F)c2)c1 [Compound 146, N-[3-(difluoromethoxy)phenyl]-N′-[3-(3,5-dimethylisoxazol-4-yl)phenyl]urea] | < 2000
Nc1ncc(Br)cc1NC(=O)Nc1ccc(OC(F)F)cc1 [Compound 136, N-(2-amino-5-bromopyridin-3-yl)-N′-[4-(difluoromethoxy)phenyl]urea] | < 2000
CC(C)Oc1ccc(NC(=O)Nc2cccc(OC(F)F)c2)cc1 [Compound 144, N-[3-(difluoromethoxy)phenyl]-N′-(4-isopropoxyphenyl)urea] | < 2000
CCOc1ccc(NC(=O)Nc2ccc(C#N)cc2)cc1 [Compound 264, N-(4-cyanophenyl)-N′-(4-ethoxyphenyl)urea] | < 2000
O=C(Nc1ccc(OC(F)F)cc1)Nc1cccc(-c2cnc3ccccc3c2)c1 [Compound 69, N-[4-(difluoromethoxy)phenyl]-N′-(3-quinolin-3-ylphenyl)urea] | < 2000
